Data published in patent US20230057130A1, “FORMULATIONS OF 19-NOR C3,3-DISUBSTITUTED C21-N-PYRAZOLYL STEROID AND METHODS OF USE THEREOF” (priority 2020, published 2023).
Converted amounts (≈) assume the structure as drawn. “And” between values parts separate entries of the source, which are not always exact repeats. Identical values can stand only once. Like-named read-outs stand apart in the source and are kept apart here.

Experiments:
[1] = Solubility of the compound of formula (I) in aqueous media; format: physicochemical
Source text: The compound of formula (I) belongs in the high permeability, poor solubility drug classification (BCS 2) described in the Biopharmaceutics Classification System (BCS). In the improved widely accepted Developability Classification System (DCS) discussed by Butler and Dressman, the high permeability low solubility category is further divided into two classifications. Specifically, the ratio of the dose to the solubility of the drug in FaSSIF can be used to predict the extent of human absorption. Class 2a describes compounds that have good permeability and poor solubility with a smaller dose to solubility ratio. Class 2b describes compounds that have a higher dose to solubility ratio and likely will be incompletely absorbed unless the drug is formulated in an already solubilized form, and therefore might present a major challenge to the formulator. […] That is, even for a dose of 10 mg about only 1.2% of the dose of the drug may dissolve in a glass of water or FaSSIF. For Class 2b compounds the system predicts that particle reduction should have no impact on bioavailability. Martinez and Amidon offer: “In the case of solubility-limited absorption particle size exerts minimal effect on the fraction of drug absorbed. In this situation, fraction of drug absorbed can only be improved by enhancing drug solubility (e.g., via inclusion of surfactants in the drug formulation.) Conversely particle size exerts its greatest effect when solubility is not a problem.” (Martinez and Amidon; J. Clin. Pharmacol.; 2002; 42; 620-643). In light of the very large […] for the compound of formula (I), oral absorption of the compound of formula (I) is solubility limited, and reduction of particle size should not affect its bioavailability.

[2] = Particle size distribution by laser diffraction (Malvern Mastersizer 2000); format: physicochemical; details: for Particle Size D10 / Particle Size D50 / Particle Size D90: laser diffraction
Source text: As used herein, the term “particle size” or “particle size distribution (PSD)” when referring to the compound of formula (I) is a list of values that defines the relative amount, typically by mass or volume, of particles present according to size. The distribution data may be reported as cumulative distributions and/or as density distributions by volume or mass such as D(v, 0.1), D(v, 0.5) and D(v, 0.9). In various embodiments, the particle size of a compound of formula (I) may be measured using laser diffraction techniques (e.g., dispersing particles in a sample and illuminating the sample in a collimated laser-beam by scattering light over a range of angles). The large particles generate a high scattering intensity at relatively narrow angles to the incident beam, while the smaller particles produce a lower intensity signal but at much wider angles. Using an array of detectors, laser-diffraction analyzers record the pattern of scattered light produced by the sample. With the application of an appropriate model of light behavior the particle-size distribution of the sample can be determined from the scattering data, via a deconvolution step.
The particle size distribution of Compound 1 was measured using a laser diffraction method. A sample of Compound 1 was either dispersed in water or wetted and dispersed in 0.2% w/v Tween 80 in water to a final concentration spanning approximately 2.5 to 60 mg/mL. Using a Malvern Mastersizer 2000 with a Hydro 2000S sample dispersion unit the obscuration was adjusted to between 10 and 30%. The stir speed was adjusted to 2250-2500 rpm, pre-measurement delay to approximately 30 s, sample measurement time to around 10-15 s, background measurement time to around 10-15 s and the particle shape assumed to be irregular. The samples were at a concentration between 0.0032-0.0044% vol and had specific surface area between 1.65 and 2.10 m^2/g, a surface weighted mean between 2.87 and 3.64 μm, and a volume weighed mean between 3.62 and 4.67 μm. The measurements were obtained using the Mie scattering model (material refractive index=1.520, dispersant refractive index=1.330, absorption=0.001 or 0.1) with normal sensitivity.

[3] = Pharmacokinetic profile of Form C of Compound 1 (micronized and un-micronized) in rat, oral gavage; format: in vivo; details: male Sprague-Dawley rats, oral gavage 15 mg/kg; for AUClast / Cmax / Tmax: suspended in 2% aqueous PVP-VA, 15 mg/kg
Method: Two groups, each with three male Sprague-Dawley rats, received an oral gavage dose of Compound 1 (un-micronized Form C or micronized Form C) suspended in 2% aqueous PVP-VA at a concentration and volume intended to achieve a target dose level of 15 mg/kg.
Serial blood samples were collected from each animal at 0.25, 0.5, 1, 2, 4, 6, 8 and 24 hours after dosing. Blood samples, which were collected into tubes containing K2EDTA, were processed for plasma. Plasma samples were analyzed for Compound 1 by LC-MS/MS. Non-compartmental pharmacokinetic parameter estimates were calculated from the plasma concentration-time data for each animal. […] In Table 8 the subscripts to AUC last and inf refer to that AUC to the last sampling time point and extrapolated to infinite time, respectively.

[4] = lot used for 8 kg blend batch, 20 mg dose strength
[5] = lot used for 12 kg blend batch, 30 mg dose strength
[6] = lot used for 34.7 kg blend batch, 20 mg dose strength
[7] = lot used for 52 kg blend batch, 30 mg dose strength

Row | SMILES | Particle Size D10 [2] [μm] | Particle Size D50 [2] | Particle Size D90 [2] | other results
1 | C[C@@]1(O)CC[C@H]2[C@H](CC[C@@H]3[C@@H]2CC[C@]2(C)[C@@H](C(=O)Cn4cc(C#N)cn4)CC[C@@H]32)C1 [Compound 1, 1-(2-((3R,5R,8R,9R,10S,13S,14S,17S)-3-hydroxy-3,13-dimethylhexadecahydro-1H-cyclopenta[a]phenanthren-17-yl)-2-oxoethyl)-1H-pyrazole-4-carbonitrile] | – | – | – | solubility in aqueous media [1]: practically insoluble; ratio of the dose to solubility in FaSSIF ([1]; 10 mg dose): greater than 10,000; ratio of the dose to solubility in FaSSIF ([1]; 20 mg dose): > 20,000; ratio of the dose to solubility in FaSSIF ([1]; 30 mg dose): > 30,000; ratio of the dose to solubility in FaSSIF ([1]; 90 mg dose): > 90,000; ratio of the dose to solubility in FaSSIF ([1]; 100 mg dose): > 100,000; part of the dose that may dissolve in a glass of water or FaSSIF ([1]; dose of 10 mg): ~1.2%; Biopharmaceutics Classification System (BCS) classification ([1]; high permeability, poor solubility): BCS 2; solubility ([1]; water): 0.8 to 3 µg/mL (≈ 1.95 to 7.32 µM)
2 | C[C@@]1(O)CC[C@H]2[C@H](CC[C@@H]3[C@@H]2CC[C@]2(C)[C@@H](C(=O)Cn4cc(C#N)cn4)CC[C@@H]32)C1 [Micronized Form A of Compound 1] | 1.5 | 4.2 μm | 11.1 μm | –
3 | C[C@@]1(O)CC[C@H]2[C@H](CC[C@@H]3[C@@H]2CC[C@]2(C)[C@@H](C(=O)Cn4cc(C#N)cn4)CC[C@@H]32)C1 [Micronized Form C of Compound 1] | – | 3.5 μm and 3.2 μm and 4.1 μm and 3.7 μm | 6.6 μm and 6.1 μm and 8.0 μm and 8.9 μm | Particle Size Distribution D10 [2, 4]: 1.7; Particle Size Distribution D50 [2, 4]: 3.2; Particle Size Distribution D90 [2, 4]: 6.1; Particle Size Distribution D10 [2, 5]: 1.7; Particle Size Distribution D50 [2, 5]: 3.2; Particle Size Distribution D90 [2, 5]: 6.1; Particle Size Distribution D10 [2, 6]: 1.8; Particle Size Distribution D50 [2, 6]: 3.3; Particle Size Distribution D90 [2, 6]: 6.5; Particle Size Distribution D10 [2, 7]: 2.1; Particle Size Distribution D50 [2, 7]: 4.1; Particle Size Distribution D90 [2, 7]: 8.0; AUClast [3]: 3647 ng·h/mL; Cmax [3]: 308 ng/mL; Tmax [3]: 6.00 h
4 | C[C@@]1(O)CC[C@H]2[C@H](CC[C@@H]3[C@@H]2CC[C@]2(C)[C@@H](C(=O)Cn4cc(C#N)cn4)CC[C@@H]32)C1 [Micronized Form C of Compound 1a] | 0.9 | 2.4 μm | 6.1 μm | –
5 | C[C@@]1(O)CC[C@H]2[C@H](CC[C@@H]3[C@@H]2CC[C@]2(C)[C@@H](C(=O)Cn4cc(C#N)cn4)CC[C@@H]32)C1 [Micronized Form C of Compound 1b] | 0.8 | 2.1 μm | 5.2 μm | –
6 | C[C@@]1(O)CC[C@H]2[C@H](CC[C@@H]3[C@@H]2CC[C@]2(C)[C@@H](C(=O)Cn4cc(C#N)cn4)CC[C@@H]32)C1 [Micronized Form C of Compound 1c] | 1.1 | 2.7 μm | 5.4 μm | –
7 | C[C@@]1(O)CC[C@H]2[C@H](CC[C@@H]3[C@@H]2CC[C@]2(C)[C@@H](C(=O)Cn4cc(C#N)cn4)CC[C@@H]32)C1 [Micronized Form C of Compound 1d] | 1.0 | 2.4 μm | 4.6 μm | –
8 | C[C@@]1(O)CC[C@H]2[C@H](CC[C@@H]3[C@@H]2CC[C@]2(C)[C@@H](C(=O)Cn4cc(C#N)cn4)CC[C@@H]32)C1 [Un-micronized Form C of Compound 1] | – | – | – | AUClast [3]: 979 ng·h/mL; Cmax [3]: 83.6 ng/mL; Tmax ([3]; male, Sprague-Dawley, rat, plasma, po, read-out: Tmax): 6.67 h; AUC(0-inf) ([3]; rat, plasma, extrapolated to infinite time): 854 ng·h/mL
9 | C[C@@]1(O)CC[C@H]2[C@H](CC[C@@H]3[C@@H]2CC[C@]2(C)[C@@H](C(=O)Cn4cc(C#N)cn4)CC[C@@H]32)C1 [Un-micronized Form C of Compound 1a] | 3.1 | 11.8 μm | 27.1 μm | –
10 | C[C@@]1(O)CC[C@H]2[C@H](CC[C@@H]3[C@@H]2CC[C@]2(C)[C@@H](C(=O)Cn4cc(C#N)cn4)CC[C@@H]32)C1 [Un-micronized Form C of Compound 1b] | 3.2 | 14.7 μm | 33.6 μm | –
11 | C[C@@]1(O)CC[C@H]2[C@H](CC[C@@H]3[C@@H]2CC[C@]2(C)[C@@H](C(=O)Cn4cc(C#N)cn4)CC[C@@H]32)C1 [Un-micronized Form C of Compound 1c] | 3.6 | 16.0 μm | 35.5 μm | –
12 | C[C@@]1(O)CC[C@H]2[C@H](CC[C@@H]3[C@@H]2CC[C@]2(C)[C@@H](C(=O)Cn4cc(C#N)cn4)CC[C@@H]32)C1 [Un-micronized Form C of Compound 1d] | 5.6 | 16.2 μm | 37.7 μm | –
